Laboratory results published in patent US20190183910A1, “ENHANCING DNA REPAIR AND PREVENTING AGING AND ITS CONSEQUENCES IN REPRODUCTIVE AND OTHER CELLS” (NEW YORK MEDICAL COLLEGE, priority 2016, published 2019).

System: MRE11
Experiment: qRT-PCR DNA DSB repair gene expression in mouse sperm lysates, MRE11
Type: cell-based
Protocol: Treatment was performed with genotoxic stress (1 mM H2O2), S1P (200 μM), and S1P with genotoxic stress and control in culture for one hour. Also, the use of an ATM inhibitor was utilized (10 μM) (KU-55593, Abcam) (Li et al., 2014). We assessed DNA damage, apoptosis, and chromatin integrity. We also studied the DNA DSB repair gene expression by qRT-PCR in sperm lysates.
Sperm pellets previously snap-frozen in PBS were thawed. RNA was extracted using the trizol method (Rio et al., 2010). The quality and quantity of the RNA were measured with NanoDrop 2000 from Thermo Scientific. RNA (2 μg) from each sample was taken for reverse transcription with dTVN and N9 primers and SuperScript III reverse transcriptase, all procured from Invitrogen. The resulting cDNA was used to perform real-time qPCR with SYBR Green on an Applied Biosystems 7900HT Real-Time PCR machine was used. To determine the relative expression of various DNA repair genes in mouse sperm, we used the ΔΔCt method, which makes use of the expression of housekeeping genes. GAPDH was used as housekeeping gene. Primers were procured from Integrated DNA technologies (IDT) (Table 3).

`CCCCCCCCCCCCC/C=C/[C@@H](O)[C@@H](N)COP(=O)(O)O` [S1P, sphingosine 1 phosphate] was tested, and the “MRE11 expression (qRT-PCR)” value (S1P treatment with ATM inhibitor) was “no significant difference” and the “MRE11 expression (qRT-PCR)” value (S1P treatment, no ATM inhibitor) was “no significant difference”.
